Measured values taken from US9655877B2, “Therapeutic methods for treating inflammation and immune system disorders” (priority 2009, dated 2017).

What was measured:
Type in all cases: cell-based, murine
[1] = tested on: TNF-α mRNA and iNOS expression in BV-2 cells; assay: TNF-α mRNA and iNOS expression in LPS-treated BV-2 cells, RT-PCR; conditions: compound 1 hour before LPS for 6 hours
Protocol: Semi-quantitative PCR assays of targeted genes were performed in a 25 μl reaction mixture containing 1.5 mM MgCl2, 0.2 mM of each deoxynucleoside triphosphate, 0.25 μM of each primer, 2 units of Taq polymerase (GE Healthcare), and 1 μl of cDNA. PCR primer sets for TNF-α and glyceraldehyde-3-phosphate dehydrogenase (GAPDH) were as follows. TNF-α (upstream: 5′-GGCTCCAGGCGGTGCT TGTCC-3′ (SEQ ID NO:1); downstream: 5′-[…]-3′ (SEQ ID NO:2)), and GAPDH (upstream: 5′-[…]-3′ (SEQ ID NO:3); downstream: 5′-[…]-3′ (SEQ ID NO:4). The thermal cycling condition for PCR was 94° C. for 30 s, 60° C. for 30 s, and 72° C. for 1 min. The cycling reactions were repeated for 24 more cycles.
The levels of TNF-α mRNA and iNOS mRNA were determined by real-time RT-PCR (Roche 480II). 18S ribosomal RNA (18S) was used as an internal control. All of the real-time RT-PCR probes were obtained from the Universal Probe Library (Roche). All of the samples were performed in duplicate. […] The relative mRNA expression of the targeted genes was calculated by 2^−ΔΔCT and expressed as fold induction.
To study the role of senkyunolide A in suppressing TNF-α production, 10^5 cells/ml BV-2 cells are seeded in 24-well plates (0.5 ml in each well). […] Total RNA of the treated samples is isolated and subjected to semi-quantitative RT-PCR assays (FIG. 9A) and quantitative RT-PCR assays (FIGS. 9B and C) using specific […] TNF-α primers.

[2] = tested on: MAP kinases (p38, JNK, ERK 1/2); assay: Phosphorylation of MAPKs in LPS-stimulated BV-2 cells, Western blot; conditions: 50 μg/ml pretreatment 1 h, 100 ng/ml LPS 30 min
Protocol: BV-2 cells (2×10^5 cells/ml) were pretreated with either 0.05% DMSO or 50 μg/ml senkyunolide A for 1 h, followed by treatment with 100 ng/ml LPS for another 30 min. (A) Cytoplasmic proteins were extracted and analyzed by Western Blot using antibodies specific for phospho-p38, phospho-JNK, phospho-ERK 1/2 and actin. (B) Nuclear proteins were extracted and analyzed by Western Blot against NF-kB p65 and lamin B antibodies. 10^5 cells/ml BV-2 cells were first pretreated with senkyunolide A for 1 h. After induction by 100 ng/ml LPS for 30 min, the culture medium was discarded. Cytoplasmic proteins and nuclear proteins were extracted separately by buffer A and buffer C as described in our previous report^28. The cell lysates were separated by 10% SDS-polyacrylamide gel electrophoresis and transferred to a nitrocellulose membrane (Schleicher & Schuell, Germany). The cell lysates were incubated with specific antibodies (phospho-MAP kinases, Actin, NF-kB p65 and Lamin B) overnight. After three washes, the membranes were incubated with the corresponding secondary antibodies. The bands were detected using the Enhanced Chemiluminescence System (GE Healthcare, Piscataway, N.J., USA) according to the manufacturer's instructions. […] Briefly, the effect of Sen A on mitogen-activated protein kinases (MAPKs) in the cell signaling cascade was investigated. […]

TNF-α mRNA = TNF-α mRNA stability assay (actinomycin D) in BV-2 cells; conditions: compound 1 hour, LPS 2 hours, then 1 μg/ml actinomycin
Protocol: 10^5 BV-2 cells were first stimulated by 100 ng/ml LPS. After 2 h of LPS treatment, transcription inhibitor actinomycin D (Act D) at a concentration of 1 ug/ml was added to stop the mRNA synthesis. Total RNA was harvested at indicated time points after actinomycin D treatment (post-Act D). The level of TNF-α mRNA was measured by real-time quantitative RT-PCR. In addition, the effect of senkyunolide A on TNF-α mRNA stability is evaluated. Specifically, 10^5 cells/ml BV-2 cells are seeded in 24-well plates (0.5 ml in each well). Cells are treated with Sen A at various concentrations for 1 hour prior to the addition of LPS for another 2 hours, and further incubated with 1 μg/ml actinomycin for various time periods. Total RNA of the treated samples is isolated and subjected to real-time RT-PCR.

[3] = tested on: TNF-α protein production in BV-2 cells; assay: LPS-induced TNF-α protein production in BV-2 cells, ELISA; conditions: 100 ng/ml LPS, 18 hours
Protocol: To measure the TNF-α level in cell culture supernatants, BV-2 cells were seeded at 1×10^5 cells/ml in the volume of 0.5 ml in 24-well culture plates. They were co-treated with or without 100 ng/ml LPS in the absence or presence of indicated concentrations of bioactive compounds of LCX for 18 h. In addition, PBMac cells were seeded at 1×10^6 cells/ml in the volume of 0.5 ml in 24-well plates. After incubation, the supernatants were collected and TNF-α levels were determined by ELISA according to the manufacturer's instructions (R&D Systems).
The role of senkyunolide A (Sen A) and Z-ligustilide (Z-Lig) in suppressing TNF-α production is further evaluated in this Example. Briefly, 5×10^4 cells/ml BV-2 cells are seeded in 24-well plates (0.5 ml in each well). Cells are treated with 0.05% DMSO; 0.05% DMSO and 100 ng/ml LPS; 50 μg/ml Sen A/Z-Lig; or 100 ng/ml LPS and Sen A/Z-Lig at a concentration of 1 μg/ml, 5 μg/ml, 10 μg/ml, 25 μg/ml, and 50 μg/ml for 18 hours, respectively. The culture supernatant is collected and the level of secreted TNF-α is measured by ELISA.

## CCCC[C@H]1OC(=O)C2=C1CCC=C2 [senkyunolide A]
[1]
  effect on TNF-α mRNA expression: inhibits TNF-α mRNA
  effect on iNOS expression: inhibits TNF-α mRNA and iNOS expression
[2]
  effect on levels of phosphorylation of MAPKs (p38, JNK, ERK 1/2): did not exert any effect
TNF-α mRNA
  effect on TNF-α mRNA stability: destabilizes TNF-α mRNA
  reduction of TNF-α mRNA half life: 43%
[3]; 10 μg/ml
  reduction in TNF-α production: approximately 2 fold
[3]; 25 μg/ml
  reduction in TNF-α production: ~4 fold
[3]; 50 μg/ml
  reduction in TNF-α production: ~10 fold
